According to patent US9573966B2, “Anti-cancer activity of novel bicyclic heterocycles” (Katholieke Universiteit Leuven, K.U.Leuven R&D, priority 2010, dated 2017):

How the values were obtained:
HL-60 cells = assay: Inhibition of HL-60 leukemic cell line proliferation (WST-1); type: cell-based, human; conditions: cytotoxicity on HL-60 cells, two days incubation, WST-1 read-out
Description: (§1) HL-60 cell line, a human promyelocytic leukemia (ATCC; CCL-240) cell line, was grown in RPMI-1640 medium (Lonza, Belgium) supplemented with 10% fetal calf serum (Hyclone, US) and antibiotics. Exponential growing phase cells were seed in flat bottom 96-well microplates (TTP, Switzerland) at 50000 cells per well in 220 μl of medium with compounds (in different concentrations) and incubated for two days at 37° C., 5% CO2. After incubation, 100 μl of supernatant were removed and 10 μl of WST-1 (Roche, Switzerland) were added. After 2 hour incubation at 37° C., 5% CO2, optical densities were measured at 450 nm. Proliferation is calculated with respect of control points (no compound and treatment with Triton X100 to have maximum and minimum proliferation data). The IC50 was determined from a graph with at least four points, each derived from the mean of at least 2 experiments. […] The results are shown in Table 2 for a number of compounds.

HSB-2 cells = assay: Inhibition of HSB-2 leukemic cell line proliferation (WST-1); type: cell-based, human; conditions: cytotoxicity on HSB-2 cells, two days incubation, WST-1 read-out
Description: as §1, with “HSB2 cell” for “HL-60 cell”, “human acute lymphoblastic” for “human promyelocytic”, “(ATCC; CCL-120.1)” for “(ATCC; CCL-240)”, “Table 1” for “Table 2”

Cc1ccc(-c2nc3c(N4CCN(C(=O)COc5ccc(Cl)cc5)CC4)nc(N)nc3[nH]2)cc1 [Example 396, 1-(4-(2-amino-8-p-tolyl-9H-purin-6-yl)piperazin-1-yl)-2-(4-chlorophenoxy)ethanone]
IC50 (HL-60 cells; Homo sapiens, 48 h): 4.97 µM | IC50 (HSB-2 cells; Homo sapiens, HSB2, 48 h): 0.49 µM

CCCSc1nc2c(N3CCN(C(=O)COc4ccc(Cl)cc4)CC3)nc(N)nc2[nH]1 [Example 425, 1-(4-(2-amino-8-(propylthio)-9H-purin-6-yl)piperazin-1-yl)-2-(4-chlorophenoxy)ethanone]
IC50 (HL-60 cells; Homo sapiens, 48 h): 8.83 µM | IC50 (HSB-2 cells; Homo sapiens, HSB2, 48 h): 4.57 µM

Nc1nc(N2CCN(C(=O)COc3ccc(Cl)cc3)CC2)c2nc(-c3ccccn3)sc2n1 [Example 282, 1-(4-(5-amino-2-(pyridin-2-yl)thiazolo[5,4-d]pyrimidin-7-yl)piperazin-1-yl)-2-(4-chlorophenoxy)ethanone]
IC50 (HL-60 cells; Homo sapiens, 48 h): 0.92 µM | IC50 (HSB-2 cells; Homo sapiens, HSB2, 48 h): 0.56 µM

Nc1nc(N2CCN(C(=O)COc3ccc(Cl)cc3)CC2)c2nc(CCc3cccs3)sc2n1 [Example 154, 5-amino-2-(2-thiophen-2-ylethyl)-7-(4-[2-(4-chloro-phenoxy)acetyl]piperazin-1-yl)thiazolo[5,4-d]pyrimidine]
IC50 (HL-60 cells; Homo sapiens, 48 h): 6.45 µM | IC50 (HSB-2 cells; Homo sapiens, HSB2, 48 h): 4.04 µM

Nc1nc(N2CCN(c3ccc(Cl)cc3)CC2)c2nc(-c3ccc(F)cc3)[nH]c2n1 [Example 414, 6-(4-(4-chlorophenyl)piperazin-1-yl)-8-(4-fluorophenyl)-9H-purin-2-amine]
IC50 (HL-60 cells; Homo sapiens, 48 h): > 10 µM | IC50 (HSB-2 cells; Homo sapiens, HSB2, 48 h): > 10 µM

Nc1nc(N2CCN(C(=O)COc3ccc(Cl)cc3)CC2)c2nc(CCc3ccc(F)cc3)oc2n1 [Example 172, 1-(4-(5-amino-2-(4-fluorophenethyl)oxazolo[5,4-d]pyrimidin-7-yl)piperazin-1-yl)-2-(4-chlorophenoxy)ethanone]
IC50 (HL-60 cells; Homo sapiens, 48 h): > 10 µM | IC50 (HSB-2 cells; Homo sapiens, HSB2, 48 h): > 10 µM

Nc1nc(N2CCN(C(=O)COc3ccc(Cl)cc3)CC2)c2nc(C3CC3)oc2n1 [Example 185, 5-amino-2-cyclopropyl-7-[4-(4-chlorophenoxyacetyl)piperazin-1-yl]-oxazolo[5,4-d]pyrimidine]
IC50 (HL-60 cells; Homo sapiens, 48 h): > 10 µM | IC50 (HSB-2 cells; Homo sapiens, HSB2, 48 h): > 10 µM

Nc1nc(N2CCN(C(=O)COc3ccc(Cl)cc3)CC2)c2nc(CCc3ccccc3)sc2n1 [Example 118, 5-amino-7-[4-(4-chlorophenoxyacetyl)piperazin-1-yl]-2-(2-phenylethyl)thiazolo[5,4-d]pyrimidine]
IC50 (HL-60 cells; Homo sapiens, 48 h): 9.97 µM | IC50 (HSB-2 cells; Homo sapiens, HSB2, 48 h): 4.53 µM

Nc1nc(N2CCN(C(=O)COc3ccccc3)CC2)c2nc(-c3ccc(F)cc3)sc2n1 [Example 130, 5-amino-2-(4-fluorophenyl)-7-(4-(2-phenoxyacetyl)-piperazin-1-yl)-thiazolo[5,4-d]pyrimidine]
IC50 (HL-60 cells; Homo sapiens, 48 h): 0.82 µM | IC50 (HSB-2 cells; Homo sapiens, HSB2, 48 h): 0.57 µM

Nc1nc(N2CCN(C(=O)COc3cccc([N+](=O)[O-])c3)CC2)c2nc(CCc3ccc(F)cc3)sc2n1 [Example 131, 5-amino-2-[2-(4-fluorophenyl)ethyl]-7-(4-[2-(3-nitrophenoxy)acetyl]piperazin-1-yl)-thiazolo[5,4-d]pyrimidine]
IC50 (HL-60 cells; Homo sapiens, 48 h): > 10 µM | IC50 (HSB-2 cells; Homo sapiens, HSB2, 48 h): > 10 µM

Cc1cccc(OCC(=O)N2CCN(c3nc(N)nc4sc(-c5ccc(F)cc5)nc34)CC2)c1 [Example 211, 1-(4-(5-amino-2-(4-fluorophenyl)thiazolo[5,4-d]pyrimidin-7-yl)piperazin-1-yl)-2-(m-tolyloxy)ethanone]
IC50 (HL-60 cells; Homo sapiens, 48 h): 0.69 µM | IC50 (HSB-2 cells; Homo sapiens, HSB2, 48 h): 0.47 µM

Nc1nc(N2CCN(C(=O)COc3ccccc3)CC2)c2cc(-c3ccccc3)sc2n1 [Example 332, 1-(4-(2-amino-6-phenylthieno[2,3d]pyrimidin-4-yl)piperazin-1-yl)-2-phenoxyethanone]
IC50 (HL-60 cells): > 10 µM | IC50 (HSB-2 cells): 5.5 µM

Nc1nc(N2CCN(C(=O)COc3ccc(Cl)cc3)CC2)c2nc(-c3ccc(C(F)(F)F)cc3)[nH]c2n1 [Example 394, 1-(4-(2-amino-8-(4-(trifluoromethyl)phenyl)-9H-purin-6-yl)piperazin-1-yl)-2-(4-chlorophenoxy)ethanone]
IC50 (HL-60 cells; Homo sapiens, 48 h): 8.78 µM | IC50 (HSB-2 cells; Homo sapiens, HSB2, 48 h): 7.37 µM

Cc1cccc(NC(=O)N2CCCN(c3nc(N)nc4[nH]c(-c5ccc(F)cc5)nc34)CC2)c1 [Example 422, 4-(2-amino-8-(4-fluorophenyl)-9H-purin-6-yl)-N-m-tolyl-1,4-diazepane-1-carboxamide]
IC50 (HL-60 cells; Homo sapiens, 48 h): > 10 µM | IC50 (HSB-2 cells; Homo sapiens, HSB2, 48 h): > 10 µM

CSc1nc2c(N3CCN(C(=O)COc4ccc(Cl)cc4)CC3)nc(N)nc2n1C [Example 428, 1-(4-(2-amino-9-methyl-8-(methylthio)-9H-purin-6-yl)piperazin-1-yl)-2-(4-chlorophenoxy)ethanone]
IC50 (HL-60 cells; Homo sapiens, 48 h): 1.59 µM | IC50 (HSB-2 cells; Homo sapiens, HSB2, 48 h): 0.75 µM

CCCCCc1nc2c(N3CCN(C(=O)COc4ccc(Cl)cc4)CC3)nc(N)nc2o1 [Example 188, 5-amino-7-[4-(4-chlorophenoxyacetyl)piperazin-1-yl]-2-pentyloxazolo[5,4-d]pyrimidine]
IC50 (HL-60 cells; Homo sapiens, 48 h): > 10 µM | IC50 (HSB-2 cells; Homo sapiens, HSB2, 48 h): > 10 µM

N#Cc1ccc(NC(=O)N2CCN(c3nc(N)nc4sc(-c5ccc(F)cc5)nc34)CC2)cc1 [Example 216, 4-(5-amino-2-(4-fluorophenyl)thiazolo[5,4-d]pyrimidin-7-yl)-N-(4-cyanophenyl)piperazine-1-carboxamide]
IC50 (HL-60 cells; Homo sapiens, 48 h): 6.41 µM | IC50 (HSB-2 cells; Homo sapiens, HSB2, 48 h): 4.9 µM

Cc1cccc(NC(=O)N2CCN(c3nc(N)nc4sc(CCc5ccc(F)cc5)nc34)CC2)c1 [Example 133, 5-amino-2-[2-(4-fluorophenyl)ethyl]-7-(4-m-tolylcarbamoylpiperazin-1-yl)-thiazolo[5,4-d]pyrimidine]
IC50 (HL-60 cells; Homo sapiens, 48 h): > 10 µM | IC50 (HSB-2 cells; Homo sapiens, HSB2, 48 h): 12.3 µM

COc1cccc(-c2nc3c(N4CCN(C(=O)COc5ccc(Cl)cc5)CC4)nc(N)nc3s2)c1 [Example 124, 5-amino-7-[4-(4-chlorophenoxyacetyl)piperazin-1-yl]-2-(3-methoxyphenyl)thiazolo[5,4-d]pyrimidine]
IC50 (HL-60 cells; Homo sapiens, 48 h): 0.96 µM | IC50 (HSB-2 cells; Homo sapiens, HSB2, 48 h): 2.29 µM

Nc1nc(N2CCN(C(=O)COc3ccc(OC(F)(F)F)cc3)CC2)c2nc(-c3cccnc3)sc2n1 [Example 273, 1-(4-(5-amino-2-(pyridin-3-yl)thiazolo[5,4-d]pyrimidin-7-yl)piperazin-1-yl)-2-(4-trifluoromethoxyphenoxy)ethanone]
IC50 (HL-60 cells; Homo sapiens, 48 h): 4.84 µM | IC50 (HSB-2 cells; Homo sapiens, HSB2, 48 h): 0.81 µM

COc1ccc(CNC(=O)N2CCN(c3nc(N)nc4sc(-c5cccnc5)nc34)CC2)cc1 [Example 278, 4-(5-amino-2-(pyridin-3-yl)thiazolo[5,4-d]pyrimidin-7-yl)-N-(4-methoxybenzyl)piperazine-1-carboxamide]
IC50 (HL-60 cells; Homo sapiens, 48 h): 0.68 µM | IC50 (HSB-2 cells; Homo sapiens, HSB2, 48 h): 0.75 µM

Nc1nc(N2CCN(C(=O)COc3ccc(Cl)cc3)CC2)c2nc(-c3cccc(Cl)c3)[nH]c2n1 [Example 393, 1-(4-(2-amino-8-(3-chlorophenyl)-9H-purin-6-yl)piperazin-1-yl)-2-(4-chlorophenoxy)ethanone]
IC50 (HL-60 cells; Homo sapiens, 48 h): 9.18 µM | IC50 (HSB-2 cells; Homo sapiens, HSB2, 48 h): 1.38 µM

Nc1nc(N2CC[C@@H](NC(=O)c3ccc(Cl)cc3)C2)c2cc(-c3ccc(F)cc3)sc2n1 [Example 341, (R)—N-(1-(2-amino-6-(4-fluorophenyl)thieno[2,3-d]pyrimidin-4-yl)pyrrolidin-3-yl)-4-chlorobenzamide]
IC50 (HL-60 cells; Homo sapiens, 48 h): > 10 µM | IC50 (HSB-2 cells; Homo sapiens, HSB2, 48 h): > 10 µM

Nc1nc(N2CCN(C(=O)COc3ccc(Cl)cc3)CC2)c2nc(C3CC3)[nH]c2n1 [Example 398, 1-(4-(2-amino-8-cyclopropyl-9H-purin-6-yl)piperazin-1-yl)-2-(4-chlorophenoxy)ethanone]
IC50 (HL-60 cells; Homo sapiens, 48 h): 6.08 µM | IC50 (HSB-2 cells; Homo sapiens, HSB2, 48 h): 4.78 µM
